What was measured:
Type in all cases: functional
Conditions in all cases: read-out: GI
MOLT-4 = assay: Growth inhibition of human MOLT-4 cells at 10 uM relative to control
MDA-MB-468 = assay: Growth inhibition of human MDA-MB-468 cells at 10 uM relative to control
SN12C = assay: Growth inhibition of human SN12C cells at 10 uM relative to control
MCF7 = assay: Growth inhibition of human MCF7 cells at 10 uM relative to control
MDA-MB-231 = assay: Growth inhibition of human MDA-MB-231 cells at 10 uM relative to control
HCC 2998 = assay: Growth inhibition of human HCC 2998 cells at 10 uM relative to control
HT-29 = assay: Growth inhibition of human HT-29 cells at 10 uM relative to control
CCRF-CEM = assay: Growth inhibition of human CCRF-CEM cells at 10 uM relative to control
SF-295 = assay: Growth inhibition of human SF-295 cells at 10 uM relative to control
HOP-62 = assay: Growth inhibition of human HOP-62 cells at 10 uM relative to control
KM12 = assay: Growth inhibition of human KM12 cells at 10 uM relative to control
SNB-19 = assay: Growth inhibition of human SNB-19 cells at 10 uM relative to control
U-251 = assay: Growth inhibition of human U-251 cells at 10 uM relative to control
UACC-257 = assay: Growth inhibition of human UACC-257 cells at 10 uM relative to control
UACC-62 = assay: Growth inhibition of human UACC-62 cells at 10 uM relative to control
786-0 = assay: Growth inhibition of human 786-0 cells at 10 uM relative to control
Hs-578T = assay: Growth inhibition of human Hs-578T cells at 10 uM relative to control
COLO 205 = assay: Growth inhibition of human COLO 205 cells at 10 uM relative to control
HOP-92 = assay: Growth inhibition of human HOP-92 cells at 10 uM relative to control
DU-145 = assay: Growth inhibition of human DU-145 cells at 10 uM relative to control
RPMI-8226 = assay: Growth inhibition of human RPMI-8226 cells at 10 uM relative to control
A549 = assay: Growth inhibition of human A549 cells at 10 uM relative to control
A498 = assay: Growth inhibition of human A498 cells at 10 uM relative to control
ACHN = assay: Growth inhibition of human ACHN cells at 10 uM relative to control
SK-OV-3 = assay: Growth inhibition of human SK-OV-3 cells at 10 uM relative to control
NCI-H23 = assay: Growth inhibition of human NCI-H23 cells at 10 uM relative to control
M14 = assay: Growth inhibition of human M14 cells at 10 uM relative to control
IGROV-1 = assay: Growth inhibition of human IGROV-1 cells at 10 uM relative to control
Malme-3M = assay: Growth inhibition of human Malme-3M cells at 10 uM relative to control

Measured: inhibition of growth at 10 µM

COc1cc(/C=C/C2=CC(c3cc(OC)c(OC)c(OC)c3)N3C(C)=CSC3=N2)cc(OC)c1OC (centres undefined)
< 10%: all assays above

From ChEMBL document CHEMBL4665869, “New thiazolopyrimidine as anticancer agents: Synthesis, biological evaluation, DNA binding, molecular modeling and ADMET study” (Bioorg Med Chem Lett, 2020)
